Measurements as given in patent publication US5723139A, “Skin care compositions containing a polycyclic triterpene carboxylic acid and a retinoid” (Chesebrough-Pond's USA Co., Division of Conopco, Inc., priority 1996, dated 1998).
“Also recorded” adds a separate entry of the source.

Assays:
[1] = system: human keratinocyte transglutaminase I (TGase I); assay: Transglutaminase I ELISA in cultured keratinocytes, normalized to DNA content (Example 1 procedure); type: cell-based; settings: 2.5×10^-7 M, 2.5×10^-8 M and 2.5×10^-9 M, vs ethanol control
Experimental: Human keratinocytes, isolated from neonatal foreskin by trypsin treatment were grown in Dulbecco Modification Eagle (DME) Hams F12 (1:1) medium/10% fetal calf serum in the presence of irradiated 3T3 mouse fibroblasts for establishing dividing keratinocyte colonies. Cells were grown under the above condition until their second passage and kept frozen for future use. […] On day 7, when the cells were 80-90% confluent, they were trypsinized and plated in the serum-free medium for the various experiments.
During the process of terminal differentiation in the epidermis, a 15 nm thick layer of protein, known as the cornified envelope (CE) is formed on the inner surface of the cell periphery. […]
Keratinocytes (cultured as described above) were plated in 96 well plates at a density of 3,000 cells per well in 200 μl media. […] The absorbance of samples was read at 492 nm in the plate reader. […] TGase levels were determined by subtracting background from the readings from each treatment and determining mean±s.d. for the replicates exposed to both Ab.
The level of TGase-1 was normalized to DNA content of the cells in the same well thus eliminating variation due to differences in cell number. DNA quantitation is a particularly useful indicator of cell number, including keratinocyte cell number, because each cell has to all intents and purposes an identical genome and therefore an identical quantity of DNA. […]

[2] = system: human keratinocyte transglutaminase I (TGase I); assay: Transglutaminase I ELISA in cultured keratinocytes, normalized to DNA content (Examples 2 and 3 procedure); type: cell-based; settings: for mean TGase/DNA × 10^5 ± s.d / effect on keratinocyte TG1 level / differentiation (in words) / activity at 0.25 µM / activity at 0.0025 µM / activity at 1 µM: 72 hours; for mean TGase/DNA × 10^5 ± s.d / activity at 0.25 µM / activity at 0.0025 µM / activity at 1 µM: n = 3; for activity at 0.25 µM / activity at 0.0025 µM / activity at 1 µM: Homo sapiens, Keratinocyte, % of control; for activity at 0.25 µM: Example 3, Table 3; for activity at 0.0025 µM: Example 2, Table 2; for effect on keratinocyte differentiation / transglutaminase I levels (in words, summary): summary of Examples 1-3
Experimental: Human keratinocytes, isolated from neonatal foreskin by trypsin treatment were grown in Dulbecco Modification Eagle (DME) Hams F12 (1:1) medium/10% fetal calf serum in the presence of irradiated 3T3 mouse fibroblasts for establishing dividing keratinocyte colonies. Cells were grown under the above condition until their second passage and kept frozen for future use. Frozen second passage keratinocytes were thawed and plated into the above medium and grown for five days before they were switched to a serum-free MCDB 153-based medium keratinocyte growth medium (KGM) from Clonetics Corporation, San Diego, Calif., containing 0.15 mM Ca, or keratinocyte serum-free media (KSFM) from GIBCO containing 0.09 mM Ca). On day 7, when the cells were 80-90% confluent, they were trypsinized and plated in the serum-free medium for the various experiments.
During the process of terminal differentiation in the epidermis, a 15 nm thick layer of protein, known as the cornified envelope (CE) is formed on the inner surface of the cell periphery. The CE is composed of numerous distinct proteins which have been cross-linked together by the formation of N^ε -(γ-glutamyl) lysine isodipeptide bonds catalyzed by the action of at least two different transglutaminases (TGases) expressed in the epidermis. TGase I is expressed in abundance in the differentiated layers of the epidermis, especially the granular layer, but is absent in the undifferentiated basal epidermis. Thus TGase I is a useful marker of epidermal keratinocyte differentiation with high TGase I levels indicating a more differentiated state. An ELISA based TGase I assay, using a TGase I antibody, was used to assess the state of differentiation of the cultured keratinocytes in the examples that follow.
Keratinocytes (cultured as described above) were plated in 96 well plates at a density of 3,000 cells per well in 200 μl of cell culture media. After incubation for four days, the media was changed to media containing test compounds (six replicates per test). The cells were cultured for a further 72 hours after which time the media was aspirated and the plates stored at -70° C. After the plates were removed from the freezer, the cells were further freezed fractured by freezing and thawing and then washed 3x with PBS. The cells were incubated for one hour at room temperature (R/T) with TBS/5% BSA buffer. Cells were then incubated with 100 μl of monoclonal anti-human transglutaminase (IgG) mouse antibody (primary antibody) obtained from Biomedical Technologies Inc. diluted 1:2000 in TBS/1% BSA buffer for two hours at 37° C., and then rinsed six times with wash buffer (TBS/1% BSA/0.05% Tween-20). Cells were next incubated with 100 μl of Fab fragment, peroxidase conjugated anti-mouse IgG antibody (secondary antibody) from Amersham diluted 1:4,000 in wash buffer for two hours at 37° C. and then rinsed three times with wash buffer and three times with PBS. Cells were incubated with substrate solution (4mg o-phenylene diamine and 3.3 μl 30% H2 O2 in 10 mL 0.1M citrate buffer, pH 5.0) for five minutes at R/T and in darkness (under aluminum foil). The reaction was stopped by the addition of 50 μl 4N H2SO4. The absorbance of samples was read at 492 nm in the plate reader. Out of the six replicates, four were treated with both antibodies, two were treated only with the secondary antibody (i.e., to determine the background binding of the enzyme conjugated antibody). Transglutaminase I levels were determined by subtracted background from the readings from each treatment and determining the mean s.d. for the replicates exposed to both antibodies.
The level of TGase-1 detected after treatment of the cells could be influenced by cell number, i.e., the greater the number of cells the greater the level of TGase-1 detected. The level of TGase-1 was normalized to DNA content of the cells in the same well thus eliminating variation due to differences in cell number. […]

[3] = system: skin keratinocytes; assay: Thymidine incorporation / proliferation of skin keratinocytes; type: cell-based, human; settings: summary of Examples 1-3
[4] = Example 2, 2.5×10^-9 M retinoic acid or retinol, 10^-6 M glycyrrhizic acid
[5] = Example 3, 2.5×10^-7 M retinoic acid or retinol, 10^-6 M oleanolic acid

Compound | effect on keratinocyte differentiation / transglutaminase level (in words) [1] | mean TGase/DNA × 10^5 ± s.d ([2]; 2.5 × 10^-7 M, Table 3) | mean TGase/DNA × 10^5 ± s.d ([2]; 2.5 × 10^-9 M, Table 2) | effect on keratinocyte TG1 level / differentiation (in words) [2, 4] | effect on keratinocyte TG1 level / differentiation (in words) [2, 5] | activity at 0.25 µM ([2]; 2.5 × 10^-7 M) [%] | activity at 0.0025 µM ([2]; 2.5 × 10^-9 M) [%] | effect on keratinocyte differentiation / transglutaminase I levels (in words, summary) [2] | effect on thymidine incorporation / keratinocyte proliferation (in words) [3] | mean TGase/DNA × 10^5 ± s.d ([2]; 10^-6 M, Table 2) | activity at 1 µM ([2]; 10^-6 M, Table 2) [%] | mean TGase/DNA × 10^5 ± s.d ([2]; 10^-6 M, Table 3) | activity at 1 µM ([2]; 10^-6 M, Table 3) [%]
CC1=C(/C=C/C(C)=C/C=C/C(C)=C/C(=O)O)C(C)(C)CCC1 [RA, Retinoic acid, reference compound] | decreased keratinocyte differentiation; also recorded: dose dependent | 9.95 ± 2.74 × 10^5 | 4.04 ± 1.23 × 10^5 | very effective at repressing keratinocyte TG1 levels | very effective at repressing keratinocyte TG1 levels | 44 | 33 | decreased transglutaminase I levels | increased thymidine incorporation |  |  |  | 
CC1=C(/C=C/C(C)=C/C=C/C(C)=C/CO)C(C)(C)CCC1 [ROH, Retinol] | dose dependent | 18.27 ± 3.30 × 10^5 | 8.29 ± 2.11 × 10^5 | less effective than retinoic acid | less effective than retinoic acid | 81 | 68 | significantly less effective than retinoic acid at inhibiting keratinocyte differentiation |  |  |  |  | 
CC1(C)[C@@H](O[C@H]2O[C@H](C(=O)O)[C@@H](O)[C@H](O)[C@H]2O[C@@H]2O[C@H](C(=O)O)[C@@H](O)[C@H](O)[C@H]2O)CC[C@]2(C)[C@H]3C(=O)C=C4[C@@H]5C[C@@](C)(C(=O)O)CC[C@]5(C)CC[C@@]4(C)[C@]3(C)CC[C@@H]12 [Glycyrrhizic acid] |  |  |  | no inhibitory effect on the keratinocyte TG1 level |  |  |  |  |  | 11.98 ± 3.00 × 10^5 | 99 |  | 
CC1(C)CC[C@]2(C(=O)O)CC[C@]3(C)C(=CC[C@@H]4[C@@]5(C)CC[C@H](O)C(C)(C)[C@@H]5CC[C@]43C)[C@@H]2C1 [Oleanolic Acid, Oleanolic acid] |  |  |  |  | only a very slight inhibitory effect on the keratinocyte TG1 level |  |  |  |  |  |  | 20.95 ± 1.95 × 10^5 | 93
